PMC9967275, “Screening the Pathogen Box to Discover and Characterize New Cruzain and TbrCatL Inhibitors” (Pathogens, 2023)

The compounds below were run against cruzain (Trypanosoma cruzi, UniProt P25779) (assay: biochemical). Conditions: 0’ (no pre-incubation); sheet Screening results.
Outline: (§1)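 Recombinant enzymes assayed by Z-Phe-Arg-AMC cleavage at 25 °C, fluorescence 340/440 nm over 5–7 min, with 10 min or no enzyme–compound preincubation.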
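Further: at 5 µM compound concentration.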

cruzain, sequence (P25779 123-337 limits assumed): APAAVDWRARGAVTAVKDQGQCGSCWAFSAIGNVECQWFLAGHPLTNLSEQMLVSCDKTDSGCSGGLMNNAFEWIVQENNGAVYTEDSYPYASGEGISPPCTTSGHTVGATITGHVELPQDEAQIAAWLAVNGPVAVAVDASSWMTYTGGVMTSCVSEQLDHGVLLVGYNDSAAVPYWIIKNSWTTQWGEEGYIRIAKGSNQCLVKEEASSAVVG

In order of falling “Cruzain Inhibition 0’” value:
1. CO[C@@H](C(=O)N1Cc2[nH]nc(NC(=O)c3ccc(N4CCN(C)CC4)cc3)c2C1)c1ccccc1 [MMV676600]  24%
2. Cc1ncc(-c2ccnc(Nc3ccc(S(C)(=O)=O)cc3)n2)n1C(C)C [MMV676604]  22%
3. Nc1c2c(nc3sc4c(c13)CCCC4)CCCC2 [MMV676588]  11%
4. NC(=O)c1cc(Br)ccc1OCCOc1ccccc1 [MMV687243]  8%
5. CC1(O)CC(c2nc(-c3ccc4ccc(-c5ccccc5)nc4c3)c3c(N)nccn23)C1 (stereo not shown) [MMV676605]  7.4%
6. CC(C)(C(=O)Nc1ccc(F)cc1)n1cc(-c2ccccc2F)cn1 [MMV687239]  7%
7. CCCn1nnc(NC(=O)COc2ccc(C3CCCCC3)cc2)n1 [MMV676597]  3%
8. C[C@H]1COC2(CCN(c3nc(=O)c4cc(C(F)(F)F)cc([N+](=O)[O-])c4s3)CC2)O1 [MMV676603]  1.3%
9. CNC(=O)c1nn(C)c2c1C(C)(C)Cc1cnc(Nc3ccc(N4CCN(C)CC4)cc3)nc1-2 [MMV676602]  0.9%
10. O=C(CCC1CCCCC1)Nc1cccc(-c2nnc(-c3ccco3)o2)c1 [MMV676589]  0%
11. O=C(NC1=NCCS1)c1sc2cc(F)ccc2c1Cl [MMV676584]  -2.7%
12. CCCCS(=O)(=O)Nc1ccc2cnn(C)c2c1 [MMV687145]  -4.6%

Same assay, conditions: 0’ (pre-incubation time); sheet "Screening results"

In order of falling “Cruzain 0’ Inhibition” value:
1. CC(C)(C)n1nc(Cc2cccc3ccccc23)c2c(N)ncnc21 [MMV676599]  9%
2. O=C(c1ccc(NCCO)cc1)C1C[C@H]1c1ccc(Cl)cc1 (stereo partly shown) [MMV676877]  9%
3. Cc1cc(C)c2cc(C(=O)NC3CCCCCCC3)[nH]c2c1 [MMV687146]  4.7%
4. NC(=O)c1cc(-c2ccsc2)ccc1OCCOc1ccccc1 [MMV687138]  2.4%

Same assay, conditions: 10’ (pre-incubation time); sheet "Screening results"

In order of rising “Cruzain 10’ Inhibition” value:
1. NC(=O)c1cc(-c2ccsc2)ccc1OCCOc1ccccc1 [MMV687138]  4%
2. Cc1cc(C)c2cc(C(=O)NC3CCCCCCC3)[nH]c2c1 [MMV687146]  4.7%
3. O=C(c1ccc(NCCO)cc1)C1C[C@H]1c1ccc(Cl)cc1 (stereo partly shown) [MMV676877]  5.5%
4. CC(C)(C)n1nc(Cc2cccc3ccccc23)c2c(N)ncnc21 [MMV676599]  11%

Same assay, conditions: 10’ (pre-incubation); sheet Screening results

In order of rising “Cruzain Inhibition 10’” value:
1. CNC(=O)c1nn(C)c2c1C(C)(C)Cc1cnc(Nc3ccc(N4CCN(C)CC4)cc3)nc1-2 [MMV676602]  -6%
2. CCCCS(=O)(=O)Nc1ccc2cnn(C)c2c1 [MMV687145]  -6%
3. CCCn1nnc(NC(=O)COc2ccc(C3CCCCC3)cc2)n1 [MMV676597]  -3.3%
4. CC(C)(C(=O)Nc1ccc(F)cc1)n1cc(-c2ccccc2F)cn1 [MMV687239]  -3%
5. CC1(O)CC(c2nc(-c3ccc4ccc(-c5ccccc5)nc4c3)c3c(N)nccn23)C1 (stereo not shown) [MMV676605]  -0.9%
6. C[C@H]1COC2(CCN(c3nc(=O)c4cc(C(F)(F)F)cc([N+](=O)[O-])c4s3)CC2)O1 [MMV676603]  1.7%
7. Cc1ncc(-c2ccnc(Nc3ccc(S(C)(=O)=O)cc3)n2)n1C(C)C [MMV676604]  3.2%
8. O=C(CCC1CCCCC1)Nc1cccc(-c2nnc(-c3ccco3)o2)c1 [MMV676589]  4%
9. NC(=O)c1cc(Br)ccc1OCCOc1ccccc1 [MMV687243]  8%
10. O=C(NC1=NCCS1)c1sc2cc(F)ccc2c1Cl [MMV676584]  9%
11. CO[C@@H](C(=O)N1Cc2[nH]nc(NC(=O)c3ccc(N4CCN(C)CC4)cc3)c2C1)c1ccccc1 [MMV676600]  12%
12. Nc1c2c(nc3sc4c(c13)CCCC4)CCCC2 [MMV676588]  13%

What follows are compounds tested against T1, TbrCatL (Trypanosoma brucei rhodesiense, UniProt Q95PM0) (assay: TbrCatL enzymatic inhibition assay (cleavage of fluorogenic substrate Z-FR-AMC)). Conditions: 0’ (no pre-incubation); sheet Screening results.
T1 construct: Conor Caffrey (University of California San Diego)
Format: biochemical
Outline: as §1

T1 sequence (Q95PM0 entry or part of it): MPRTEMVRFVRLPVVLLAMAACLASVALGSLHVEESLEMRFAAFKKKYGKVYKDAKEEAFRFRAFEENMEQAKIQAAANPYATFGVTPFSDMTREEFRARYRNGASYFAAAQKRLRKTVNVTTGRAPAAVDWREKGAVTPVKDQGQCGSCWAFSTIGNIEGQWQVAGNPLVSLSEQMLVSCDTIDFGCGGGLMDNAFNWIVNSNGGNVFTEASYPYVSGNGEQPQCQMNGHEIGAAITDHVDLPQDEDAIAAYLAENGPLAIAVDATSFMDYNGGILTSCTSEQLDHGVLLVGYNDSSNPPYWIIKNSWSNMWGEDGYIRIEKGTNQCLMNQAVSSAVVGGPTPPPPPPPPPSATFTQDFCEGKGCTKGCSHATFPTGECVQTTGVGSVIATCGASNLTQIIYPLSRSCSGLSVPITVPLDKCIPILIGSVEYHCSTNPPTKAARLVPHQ

In order of falling “TbrCatL Inhibition 0’” value:
1. Nc1c2c(nc3sc4c(c13)CCCC4)CCCC2 [MMV676588]  14%
2. CCCn1nnc(NC(=O)COc2ccc(C3CCCCC3)cc2)n1 [MMV676597]  10%
3. CO[C@@H](C(=O)N1Cc2[nH]nc(NC(=O)c3ccc(N4CCN(C)CC4)cc3)c2C1)c1ccccc1 [MMV676600]  7.5%
4. CC1(O)CC(c2nc(-c3ccc4ccc(-c5ccccc5)nc4c3)c3c(N)nccn23)C1 (stereo not shown) [MMV676605]  7%
5. C[C@H]1COC2(CCN(c3nc(=O)c4cc(C(F)(F)F)cc([N+](=O)[O-])c4s3)CC2)O1 [MMV676603]  4.5%
6. CNC(=O)c1nn(C)c2c1C(C)(C)Cc1cnc(Nc3ccc(N4CCN(C)CC4)cc3)nc1-2 [MMV676602]  4%
7. O=C(CCC1CCCCC1)Nc1cccc(-c2nnc(-c3ccco3)o2)c1 [MMV676589]  3.3%
8. Cc1ncc(-c2ccnc(Nc3ccc(S(C)(=O)=O)cc3)n2)n1C(C)C [MMV676604]  3%
9. CC(C)(C(=O)Nc1ccc(F)cc1)n1cc(-c2ccccc2F)cn1 [MMV687239]  1.1%
10. O=C(NC1=NCCS1)c1sc2cc(F)ccc2c1Cl [MMV676584]  -0.5%
11. NC(=O)c1cc(Br)ccc1OCCOc1ccccc1 [MMV687243]  -2.4%
12. CCCCS(=O)(=O)Nc1ccc2cnn(C)c2c1 [MMV687145]  -3%

Same assay, conditions: 0’ (pre-incubation time); sheet "Screening results"

In order of rising “TbrCatL 0’ Inhibition” value:
1. Cc1cc(C)c2cc(C(=O)NC3CCCCCCC3)[nH]c2c1 [MMV687146]  -1.1%
2. NC(=O)c1cc(-c2ccsc2)ccc1OCCOc1ccccc1 [MMV687138]  0.2%
3. O=C(c1ccc(NCCO)cc1)C1C[C@H]1c1ccc(Cl)cc1 (stereo partly shown) [MMV676877]  1.1%
4. CC(C)(C)n1nc(Cc2cccc3ccccc23)c2c(N)ncnc21 [MMV676599]  4.6%

Same assay, conditions: 10’ (pre-incubation time); sheet "Screening results"

In order of falling “TbrCatL 10’ Inhibition” value:
1. O=C(c1ccc(NCCO)cc1)C1C[C@H]1c1ccc(Cl)cc1 (stereo partly shown) [MMV676877]  9%
2. NC(=O)c1cc(-c2ccsc2)ccc1OCCOc1ccccc1 [MMV687138]  -2.4%
3. CC(C)(C)n1nc(Cc2cccc3ccccc23)c2c(N)ncnc21 [MMV676599]  -5%
4. Cc1cc(C)c2cc(C(=O)NC3CCCCCCC3)[nH]c2c1 [MMV687146]  -12%

Same assay, conditions: 10’ (pre-incubation); sheet Screening results

In order of rising “TbrCatL Inhibition 10’” value:
1. Cc1ncc(-c2ccnc(Nc3ccc(S(C)(=O)=O)cc3)n2)n1C(C)C [MMV676604]  -26%
2. NC(=O)c1cc(Br)ccc1OCCOc1ccccc1 [MMV687243]  -18%
3. CC1(O)CC(c2nc(-c3ccc4ccc(-c5ccccc5)nc4c3)c3c(N)nccn23)C1 (stereo not shown) [MMV676605]  -13%
4. O=C(NC1=NCCS1)c1sc2cc(F)ccc2c1Cl [MMV676584]  -9%
5. CC(C)(C(=O)Nc1ccc(F)cc1)n1cc(-c2ccccc2F)cn1 [MMV687239]  -6%
6. CCCCS(=O)(=O)Nc1ccc2cnn(C)c2c1 [MMV687145]  -1.9%
7. CNC(=O)c1nn(C)c2c1C(C)(C)Cc1cnc(Nc3ccc(N4CCN(C)CC4)cc3)nc1-2 [MMV676602]  1.5%
8. Nc1c2c(nc3sc4c(c13)CCCC4)CCCC2 [MMV676588]  2%
9. C[C@H]1COC2(CCN(c3nc(=O)c4cc(C(F)(F)F)cc([N+](=O)[O-])c4s3)CC2)O1 [MMV676603]  2.8%
10. O=C(CCC1CCCCC1)Nc1cccc(-c2nnc(-c3ccco3)o2)c1 [MMV676589]  4.4%
11. CCCn1nnc(NC(=O)COc2ccc(C3CCCCC3)cc2)n1 [MMV676597]  10%
12. CO[C@@H](C(=O)N1Cc2[nH]nc(NC(=O)c3ccc(N4CCN(C)CC4)cc3)c2C1)c1ccccc1 [MMV676600]  11%
